Assays:
Assay type in all cases: in vivo, Male OFA Sprague-dawley rats
α-MHC = assay: mRNA expression by real-time qPCR in atria and ventricle of I/R rats
Excerpt: (§1) • Figure 1 is a combination of two graphs showing left atrium (LA) area after one month of treatment with DTI Dabigatran (A) or S35792 (B). Vehicle (V) is 60% H2O/40% PEG 300 for dabigatran and saline for S35972. Treatment of rats started just after thoracotomy without (Sham) or with occlusion of left coronary artery followed by reperfusion (I/R). […] Vehicle (V) is 60% H2O/40% PEG 300 for dabigatran and saline for S35972. Treatment of rats started just after thoracotomy without (Sham) or with occlusion of left coronary artery followed by reperfusion (I/R). Results are presented as mean +/- S.E.M. * P<0.05; ** P<0.001, *** P<0.001 vs Sham; #P<0.05 vs untreated I/R. • Figure 3 is a combination of two graphs showing thrombin time (TT), which reflects anticoagulant activity, and plasma concentrations of Dabigatran (A) and S35792 (B) in rats after throracotomy with occlusion of left coronary artery followed by reperfusion (I/R). Vehicle (V) is 60% H2O/40% PEG 300 for dabigatran and saline for S35972. Tests were carried out on blood collected by cardiac puncture at sacrifice (i.e. for Dabigatran, 90 minutes after last oral administration). DTI plasma levels are quantified using LC-MS/MS. TT are expressed as mean +/- S.E.M with reference to the mean value of sham animals that underwent thoracotomy only. *** P<0.001 vs untreated I/R. • Figure 4 is a combination of three graphs showing left atrium (LA) area (A) and diameter (B) and left ventricle end-diastolic (LVED) diameter (C) after two months of treatment with S35972. Treatment of rats started just after thoracotomy without (Sham) or with occlusion of left coronary artery followed by reperfusion (I/R). LA area was measured by bidimensional echocardiography. LA and LVED diameters were measured in time-motion mode. Results are presented as mean +/- S.E.M. *P<0.05, **P<0.01 and *** P<0.001 vs Sham; ^#P<0.05 ^###P<0.001 vs untreated I/R. • Figure 5 is a graph showing the impact of S35972 administration during two months on the duration of an episode of AF in rats undergone thoracotomy without (Sham) or with occlusion of left coronary artery followed by reperfusion (I/R). AF duration is measured as the time between the end of the electric stimulation and the return to sinusoidal rhythm. […] Rats undergone thoracotomy without (Sham) or with occlusion of left coronary artery followed by reperfusion (I/R). Expression of mRNA was measured with real-time qPCR. […] Expression of mRNA was measured with real-time qPCR. […] Expression of mRNA was measured with real-time qPCR. […] LA area was measured by bidimensional echocardiography. LVED and LA diameters were measured in time-motion mode. […] AF duration is measured as the time between the end of the electric stimulation and return to sinusoidal rhythm. […]

β-MHC = assay: as above
Excerpt: as §1

ANP = assay: as above; conditions: 6 mg/kg/day, 2 months
Excerpt: (§2) • Figure 1 is a combination of two graphs showing left atrium (LA) area after one month of treatment with DTI Dabigatran (A) or S35792 (B). Vehicle (V) is 60% H2O/40% PEG 300 for dabigatran and saline for S35972. Treatment of rats started just after thoracotomy without (Sham) or with occlusion of left coronary artery followed by reperfusion (I/R). Results are presented as mean +/- S.E.M, *P<0.05, **P<0.01 and *** P<0.001 vs Sham; ^##P<0.01 and ^###P<0.001 vs untreated I/R. • Figure 2 is a combination of graphs showing left ventricular end-diastolic (LVED) diameter and fractional shortening (FS) after one month of treatment with Dabigatran (A) or S35792 (B). Vehicle (V) is 60% H2O/40% PEG 300 for dabigatran and saline for S35972. Treatment of rats started just after thoracotomy without (Sham) or with occlusion of left coronary artery followed by reperfusion (I/R). Results are presented as mean +/- S.E.M. * P<0.05; ** P<0.001, *** P<0.001 vs Sham; #P<0.05 vs untreated I/R. • Figure 3 is a combination of two graphs showing thrombin time (TT), which reflects anticoagulant activity, and plasma concentrations of Dabigatran (A) and S35792 (B) in rats after throracotomy with occlusion of left coronary artery followed by reperfusion (I/R). Vehicle (V) is 60% H2O/40% PEG 300 for dabigatran and saline for S35972. Tests were carried out on blood collected by cardiac puncture at sacrifice (i.e. for Dabigatran, 90 minutes after last oral administration). DTI plasma levels are quantified using LC-MS/MS. TT are expressed as mean +/- S.E.M with reference to the mean value of sham animals that underwent thoracotomy only. *** P<0.001 vs untreated I/R. • Figure 4 is a combination of three graphs showing left atrium (LA) area (A) and diameter (B) and left ventricle end-diastolic (LVED) diameter (C) after two months of treatment with S35972. Treatment of rats started just after thoracotomy without (Sham) or with occlusion of left coronary artery followed by reperfusion (I/R). LA area was measured by bidimensional echocardiography. LA and LVED diameters were measured in time-motion mode. Results are presented as mean +/- S.E.M. *P<0.05, **P<0.01 and *** P<0.001 vs Sham; ^#P<0.05 ^###P<0.001 vs untreated I/R. • Figure 5 is a graph showing the impact of S35972 administration during two months on the duration of an episode of AF in rats undergone thoracotomy without (Sham) or with occlusion of left coronary artery followed by reperfusion (I/R). AF duration is measured as the time between the end of the electric stimulation and the return to sinusoidal rhythm. Results are presented as mean +/- S.E.M, *P<0.05 vs Sham; ^##P<0.01 vs untreated I/R, • Figure 6 is a combination of graphs showing the impact of treatments with 25 mg/kg/d dabigatran for 4 weeks and 6 mg/kg/d S35972 for 8 weeks on atrial (A) and ventricular (B) expression of myosin heavy chain (MHC) isoforms. Rats undergone thoracotomy without (Sham) or with occlusion of left coronary artery followed by reperfusion (I/R). Expression of mRNA was measured with real-time qPCR. Results are presented as mean +/- S.E.M. *P<0.05, **P<0.01 vs Sham; #P<0.05 vs untreated I/R. • Figure 7 is a combination of graphs showing the impact of 2 months S35972 administration on the expression of the hypertrophic markers, brain and atrial natriuretic peptides (BNP and ANP) in atria (A) and ventricle (B). Rats undergone thoracotomy without (Sham) or with occlusion of left coronary artery followed by reperfusion (I/R). Expression of mRNA was measured with real-time qPCR. Results are presented as mean +/- S.E.M. *P<0.05, ***P<0.001 vs Sham; #P<0.05, ##P<0.01 vs untreated I/R. • Figure 8 is a combination of graphs showing the impact of 2 months S35972 administration on the expression of fibrotic markers, plasminogen activator inhibitor 1 (PAI-1, A) and heparin-binding epidermal growth factor (HB-EGF, B) in atria and ventricle. Rats undergone thoracotomy without (Sham) or with occlusion of left coronary artery followed by reperfusion (I/R). […]

PAI-1 = assay: as above; conditions: 2 months administration
Excerpt: as §2

HB-EGF = assay: as above; conditions: 2 months administration
Excerpt: as §2

BNP = assay: as above; conditions: 6 mg/kg/day, 2 months
Excerpt: as §2

blood coagulation = assay: Thrombin time (TT) on blood collected by cardiac puncture at sacrifice of I/R rats; conditions: subcutaneous osmotic minipump, with reference to the mean value of sham animals
Excerpt: • Figure 1 is a combination of two graphs showing left atrium (LA) area after one month of treatment with DTI Dabigatran (A) or S35792 (B). Vehicle (V) is 60% H2O/40% PEG 300 for dabigatran and saline for S35972. Treatment of rats started just after thoracotomy without (Sham) or with occlusion of left coronary artery followed by reperfusion (I/R). […] Vehicle (V) is 60% H2O/40% PEG 300 for dabigatran and saline for S35972. Treatment of rats started just after thoracotomy without (Sham) or with occlusion of left coronary artery followed by reperfusion (I/R). Results are presented as mean +/- S.E.M. * P<0.05; ** P<0.001, *** P<0.001 vs Sham; #P<0.05 vs untreated I/R. • Figure 3 is a combination of two graphs showing thrombin time (TT), which reflects anticoagulant activity, and plasma concentrations of Dabigatran (A) and S35792 (B) in rats after throracotomy with occlusion of left coronary artery followed by reperfusion (I/R). Vehicle (V) is 60% H2O/40% PEG 300 for dabigatran and saline for S35972. […] DTI plasma levels are quantified using LC-MS/MS. TT are expressed as mean +/- S.E.M with reference to the mean value of sham animals that underwent thoracotomy only. *** P<0.001 vs untreated I/R. • Figure 4 is a combination of three graphs showing left atrium (LA) area (A) and diameter (B) and left ventricle end-diastolic (LVED) diameter (C) after two months of treatment with S35972. […] LA area was measured by bidimensional echocardiography. LA and LVED diameters were measured in time-motion mode. […] AF duration is measured as the time between the end of the electric stimulation and the return to sinusoidal rhythm. […] Expression of mRNA was measured with real-time qPCR. […] Expression of mRNA was measured with real-time qPCR. […] Expression of mRNA was measured with real-time qPCR. […] LA area was measured by bidimensional echocardiography. LVED and LA diameters were measured in time-motion mode. […] AF duration is measured as the time between the end of the electric stimulation and return to sinusoidal rhythm. […]

[1] = atrium, 6 mg/kg/day for 8 weeks post I/R
[2] = ventricle, 6 mg/kg/day post I/R

Substance: 4-oxo-3-(2-pyridin-2-ylethylamino)-4,6,7,8-tetrahydro-pyrrolo[1,2-a]pyrazine-6-carboxylic acid 2-ethylcarbamoyl methoxy-benzylamide [S35972]
- expression of α-MHC (mRNA) in left atrium (α-MHC; [1]): without impacting the expression of α-MHC
- expression of α-MHC (mRNA) in the ventricle (α-MHC; [2]): without significant impact on the expression of α-MHC
- synthesis of β-MHC (mRNA) in left atrium (β-MHC; [1]): prevents the synthesis of β-MHC
- synthesis of β-MHC (mRNA) in the ventricle (β-MHC; [2]): prevents the synthesis of β-MHC
- expression of ANP (mRNA) in the atrium (ANP; atrium): does not impact its expression
- synthesis of ANP (mRNA) in the ventricle (ANP; ventricle): significantly reduces its synthesis
- mRNA expression of PAI-1 in atria (PAI-1; atria): has an inhibitory effect
- mRNA expression of PAI-1 in ventricles (PAI-1; ventricles): inhibitory effect in atria only
- induction of HB-EGF mRNA in atria (HB-EGF; atria): prevents the induction of HB-EGF mRNA
- induction of HB-EGF mRNA in ventricles (HB-EGF; ventricles): prevents the induction of HB-EGF mRNA
- synthesis of BNP (mRNA) in the atrium (BNP; atrium): prevents the synthesis of BNP
- synthesis of BNP (mRNA) in the ventricle (BNP; ventricle): prevents the synthesis of BNP
- thrombin time increases by a factor (blood coagulation; 3 mg/kg/day): 3
- thrombin time increases by a factor (blood coagulation; 6 mg/kg/day): 3
